Legend:
[1] = tested on: peritoneal macrophages; experiment: Intracellular killing of E. coli by peritoneal macrophages (gentamicin protection, CFU count); assay type: cell-based, murine; conditions: for effect on ATP-stimulated E. coli killing: antagonist pretreatment 30 min before 5 min ATP pulse
Method: FIGS. 1A through 1K show ATP augments bacterial killing in macrophages in a P2X4R-dependent fashion. […] Peritoneal macrophages from WT and P2X7R^−/− mice were infected with E. coli (FIG. 1A) or with S. aureus (FIG. 1B) for 90 minutes, which was followed by pulsing the cells with ATP for 5 minutes. Subsequently, after a 2-hour incubation with 400 ng/ml gentamicin, the macrophages were lysed and serial dilutions of their intracellular content were spread onto LB agar plates. *P<0.05; **P<0.01 vs. E. coli; n=5-6. FIG. 1C and FIG. 1D show ATP augments bacterial killing independently of adenosine. Macrophages from WT and CD39^−/− mice were infected with E. coli, pulsed with ATP (FIG. 1C) or adenosine (FIG. 1D), and then incubated with gentamicin for 2 hours, which was followed by intracellular CFU counting. *P<0.05; **P<0.01 vs. E. coli; n=4-6. […] Peritoneal macrophages were isolated from WT mice and RNA was extracted from untreated cells. RNA was transcribed and quantitative PCRs were conducted. n=6. FIGS. 1F through 1K show P2X4Rs are responsible for the ATP-stimulated increase in bacterial killing in macrophages. Peritoneal macrophages were infected with E. coli for 90 min, pretreated with (FIG. 1F) P2X4R antagonist (5-BDBD) or (FIG. 1G) P2X7R antagonist (A438079) for 30 minutes before an ATP pulse for 5 minutes, and then incubated with gentamicin for 2 hours. Killing was determined at the end of this incubation period. *P<0.05; ***P<0.001 vs. E. coli treatment; ^##P<0.01 vs. ATP/E. coli treatment; n=5-6. In FIG. 1H, macrophages were transfected with scrambled siRNA- or P2X4 siRNA, and the effect of ATP on bacterial killing determined. **P<0.01 vs. E. coli treatment; n=6. In FIG. 1I, peritoneal macrophages from WT and P2X4R^−/− mice were infected with E. coli, pulsed with ATP, incubated with gentamicin for 2 hours and then bacterial killing was determined. **P<0.01 vs. E. coli treatment; n=6. In FIGS. 1J and 1K, phorbol 12-myristate 13-acetate (PMA)-differentiated human monocytic THP-1 cells were infected with E. coli for 90 minutes, exposed to ATP for 5 minutes and then killing was determined as described above for peritoneal macrophages (FIG. 1J). In other experiments, THP-1 cells were infected with E. coli, pretreated with 5-BDBD or vehicle for 30 minutes before a 5-minutes ATP pulse (FIG. 1K), two hours after which intracellular CFUs were determined. **P<0.01; vs. E. coli treatment; ^##P<0.01 vs. ATP/E. coli treatment. n=6-7. Data are expressed as mean±SEM. All results are representatives of three experiments.
Naive, thioglycollate-elicited murine peritoneal macrophages were treated with E. coli (K-12 strain) at 1:15 cell:bacteria ratio in vitro and incubated for 90 minutes to allow for phagocytosis to occur. After 90 minutes, the cells were washed to remove non-phagocytosed bacteria and treated with increasing concentrations (0.1 to 3 μM) of ATP or adenosine for 5 minutes. After 5 minutes, the medium was removed and the cells were washed extensively.
New medium was added that was supplemented with 100 μg/mL gentamicin. This allowed the maturation of the phagosome and killing of the phagocytosed bacteria. The cells were incubated for approximately 2 hours at 37° C. After incubation, the cells were washed 5 times to remove the gentamicin and were lysed. Colony forming units (CPUs) were determined after an overnight incubation on agar.

[2] = tested on: sepsis by cecal ligation and puncture (CLP); experiment: CLP sepsis model: survival, bacterial load, plasma BUN; assay type: in vivo, mice; conditions: for survival: monitored 7 days, vs vehicle
Method: WT and P2X4R^−/− mice were injected with 10 mg/kg ivermectin or its vehicle and subjected to CLP. The survival of mice was monitored for 7 days *P<0.05-P2X4R^−/− injected with vehicle (n=21) vs. WT injected with vehicle (n=25); ***P<0.001—WT injected with ivermectin (n=20); vs. WT injected with vehicle (n=25). In FIGS. 3B and 3C bacterial burden was determined by counting the number of CFUs on blood agar plates after serial dilution of blood and peritoneal lavage samples. Blood and lavage fluid were collected at 16 hours after CLP. *P<0.05 vs. veh (veh and 10 mg/kg ivermectin; n=10 and 9, respectively. In FIG. 3D BUN was determined from plasma of ivermectin- or vehicle-treated mice 16 hours after CLP. *P<0.05. Veh and 10 mg/kg ivermectin; n=10 and 9, respectively. FIGS. 3E and 3F show ivermectin increasing intracellular killing of E. coli in cultured macrophages. Peritoneal macrophages were infected with E. coli for 90 minutes and then pulsed with ATP for 5 minutes. ATP was then removed and the macrophages were incubated with ivermectin for 30 minutes. Thereafter the ivermectin was removed and the cells were incubated in medium containing gentamicin for another 2 hours. The cells were then lysed and serial dilutions of intracellular content were spread onto LB agar plates. *P<0.05 (n=5-6); **P<0.01 (n=5-6). Data are expressed as mean±SEM. All results are representatives of three experiments.
From these studies, it was believed that pharmacological activation of P2X4Rs would have an effect opposite to that of inactivating these receptors genetically; that is that the pharmacological activation of P2X4Rs would be protective. To examine this, mice were injected with ivermectin, an anti-helminth drug that is a partial allosteric activator of P2X4Rs (Khakh et al. J Neurosci 1999 19:7289-7299) 90 minutes after performing CLP. […] Furthermore, ivermectin potentiated the ATP stimulation of bacterial killing in macrophages in vitro (FIGS. 3E and 3F).
Male C57B16/J rmce were anesthetized using Nembutal, and a 2-cm midline laparotomy was performed to allow exposure of the cecum with adjoining intestine. Approximately two-thirds of the cecum was tightly ligated with a 3.0 silk suture, and the ligated part of the cecum was perforated twice (through and through) with a 20-gauge needle. […] The mice were resuscitated with 1 ml of physiological saline injected subcutaneously and returned to their cages with free access to food and water, and survival was monitored for 7 days (p<0.05). Survival curves were analyzed using two-tailed Fisher's exact test.
Bacterial load in mice subjected to CLP was measured at 16 h after surgery. Dilutions of blood or peritoneal lavage fluid were cultured on tryptose blood agar plates, and the number of bacterial colonies was counted. […]

[3] = tested on: human monocytic THP-1 cells; experiment: Intracellular killing of E. coli by PMA-differentiated THP-1 cells; assay type: cell-based
Method: (§1) FIGS. 1A through 1K show ATP augments bacterial killing in macrophages in a P2X4R-dependent fashion. […] Peritoneal macrophages from WT and P2X7R^-/- mice were infected with E. coli (FIG. 1A) or with S. aureus (FIG. 1B) for 90 minutes, which was followed by pulsing the cells with ATP for 5 minutes. Subsequently, after a 2-hour incubation with 400 ng/ml gentamicin, the macrophages were lysed and serial dilutions of their intracellular content were spread onto LB agar plates. *P<0.05; **P<0.01 vs. E. coli; n=5-6. FIG. 1C and FIG. 1D show ATP augments bacterial killing independently of adenosine. […] RNA was transcribed and quantitative PCRs were conducted. n=6. […] Killing was determined at the end of this incubation period. *P<0.05; ***P<0.001 vs. E. coli treatment; ^##P<0.01 vs. ATP/E. coli treatment; n=5-6. In FIG. 1H, macrophages were transfected with scrambled siRNA- or P2X4 siRNA, and the effect of ATP on bacterial killing determined. **P<0.01 vs. E. coli treatment; n=6. In FIG. 1I, peritoneal macrophages from WT and P2X4R^-/- mice were infected with E. coli, pulsed with ATP, incubated with gentamicin for 2 hours and then bacterial killing was determined. **P<0.01 vs. E. coli treatment; n=6. […] Data are expressed as mean±SEM. […]

[4] = tested on: peritoneal macrophages; experiment: Intracellular killing of S. aureus by peritoneal macrophages (CFU count); assay type: cell-based, mice; conditions: WT and P2X7R−/− macrophages; S. aureus 90 min, ATP pulse 5 min
Method: as §1

[5] = tested on: murine polymicrobial sepsis; conditions: injected ATP; cited from earlier work

Nc1ncnc2c1ncn2[C@@H]1O[C@H](CO)[C@@H](O)[C@H]1O [adenosine]
killing of E. coli ([1]; macrophages from WT and CD39−/− mice, adenosine pulse): failed to increase E. coli killing

22,23-dihydroavermectin [ivermectin]
ATP stimulation of bacterial killing in macrophages ([1]; E. coli 90 min, ATP pulse 5 min, then ivermectin 30 min, gentamicin 2 h): potentiated
plasma BUN levels ([2]; 16 hours after CLP, 10 mg/kg ivermectin vs vehicle): diminished plasma BUN levels
survival ([2]; P2X4R−/− mice, 10 mg/kg ivermectin, CLP): failed to improve survival
survival ([2]; WT mice, 10 mg/kg ivermectin 90 minutes after CLP): improved survival
bacterial burden (CFUs) ([2]; blood and peritoneal lavage, 16 hours after CLP, 10 mg/kg ivermectin vs vehicle): decreased bacteria

O=C1CN=C(c2cccc(Br)c2)c2oc3ccccc3c2N1 [P2X4R antagonist]
effect on ATP-stimulated E. coli killing [1]: prevented the stimulatory effect of ATP on E. coli killing
effect on ATP-stimulated E. coli killing ([3]; antagonist 30 min before 5 min ATP pulse): inhibited the stimulatory effect of ATP on E. coli killing

Clc1cccc(-c2nnnn2Cc2cccnc2)c1Cl [P2X7R antagonist]
effect on ATP-stimulated E. coli killing [1]: not P2X7R antagonist (FIG. 1G) prevented the stimulatory effect of ATP

Nc1ncnc2c1ncn2[C@@H]1O[C@H](COP(=O)(O)OP(=O)(O)OP(=O)(O)O)[C@@H](O)[C@H]1O [ATP, adenosine triphosphate]
intracellular bacterial killing (S. aureus) [4]: increases intracellular bacterial killing
macrophage-mediated bacterial killing [5]: augments macrophage-mediated bacterial killing
killing of E. coli ([1]; WT and P2X7R−/− macrophages, E. coli 90 min, ATP pulse 5 min, gentamicin 2 h): increased killing of E. coli
killing of E. coli ([1]; macrophages from P2X4R−/− mice, ATP pulse): failed to stimulate E. coli killing
killing of E. coli ([1]; macrophages from WT littermate controls, ATP pulse): dose-dependent increase in killing
killing of E. coli ([1]; macrophages lacking CD39 (CD39−/−), ATP pulse): also killed E. coli
stimulatory effect of ATP on E. coli killing ([1]; macrophages with P2X4R silencing vs scrambled control): largely reversed
killing of E. coli ([3]; ATP 5 min): increased killing of E. coli

From patent US10806747B2, “Methods for treating infection including sepsis via P2X receptor modulation” (Rutgers, The State University of New Jersey, priority 2017, dated 2020)
